Assays:
Type in all cases: cell-based
[1] = test system: PC3 cells; experiment: Mitochondria toxicity assay with PC3 cells, cytotoxicity (Cell Titer Glo); details: Homo sapiens, PC-3, 120 h, 5 days treatment
Outline: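 Cytotoxicity reported in μM bins, A <1.0 through E >100.0. Measured via Cell Titer Glo luminescence (30 min, room temperature) after 5-day dose-titration treatment of PC3 cells, grown in F-12K/10% FBS, at 37° C, 5% CO2.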

[2] = test system: SDH-A (succinate dehydrogenase-A); experiment: Mitochondria toxicity assay with PC3 cells, in-cell ELISA SDH-A; details: 5 days treatment
Outline: (§1)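 This in-cell ELISA was run on fixed, permeabilized PC3 cells after 5-day exposure to titrated compound, with cytotoxicity measured on a duplicate plate. Results are reported as categories A (<1.0 μM) to E (>100.0 μM).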

[3] = Mitochondria toxicity assay with PC3 cells, in-cell ELISA COX-1; details: 5 days treatment
Outline: as §1

[4] = test system: THP1-Dual KO-TREX1 cells; experiment: THP1 TREX1 KO inhibition assay (type 1 interferon response); details: Homo sapiens, 144 h, type 1 interferon (QUANTI-LUC), 1 μM 5-aza-2′-deoxycytidine, six days
Protocol: Exemplary compounds were tested for their ability to alter the type 1 interferon response in THP1 Dual TREX1 KG cells treated with 5-aza-2′-deoxycytidine. Assay procedures and results are described below.
THP1 Dual TREX1 KG cells were purchased from Invivogen. The THP1-Dual™ KO-TREX1 cells were cultured in RPMI 1640, 10% heat-inactivated fetal bovine serum, 25 mM HEPES, 10 μg/mL blasticidin, and 100 μg/mL zeocin. THP1-Dual™ KO-TREX1 cells were treated with a dose titration of a test compound alone or in the presence of 1 μM 5-aza-2′-deoxycytidine (Sigma-Aldrich, cat #189825). Type 1 Interferon and cell viability were assessed after six days of treatment.
Stock solution of the test compound was prepared in DMSO followed by a three-fold dilution in DMSO. Additional 50× dilution was prepared in cell culture media for each dilution. 10 μL of diluted test compound was then added to a 96-well plate.
THP1-Dual™ KO-TREX1 cells were treated with either 1×PBS or 1 μM 5-aza-2′-deoxycytidine. […] of the THP1-Dual™ KO-TREX1 cells from either treatment were added to each well of the 96-well plate containing the test compound titration at 50,000 cells/well. Cells were incubated at 37° C., 5% CO2 in a humidified incubator for six days. Cells treated with 1 μM 5-aza-2′-deoxycytidine were added at the same density as above and incubated at 37° C., 5% CO2 in a humidified incubator for six days. On day six, 25 μL of cell supernatant was transferred to a 96-well white-walled plate, followed by addition to each well of 50 μL of QUANTI-LUC solution containing stabilizer. Luminescence was detected on a plate reader according to the manufacturer's instructions.
The remaining cells were assessed for cell viability by adding 25 μL of CellTiter-Glo (Promega, G9683) solution to each well, and being placed on a shaker for 10 minutes at room temperature. Luminescence was detected on a plate reader, according to the manufacturer's instructions.
In the tables “A” represents values≤0.050 μM; “B” represents values from >0.050 μM to ≤0.100 μM; “C” represents values from >0.100 μM to ≤0.250 μM; “D” represents values from >0.250 μM to ≤1 μM; “E” represents values>1 μM; and “NT”=not tested: […]

Row | Compound | IC50 [1] | IC50 [2] | IC50 [3] | IC50 [4]
1 | C=C[C@]1(CO)O[C@@H](n2cnc3c(=O)[nH]c(N)nc32)[C@@H](F)[C@@H]1O [Compound 63, 2-amino-9-[(2R,3S,4R,5R)-5-ethenyl-3-fluoro-4-hydroxy-5-(hydroxymethyl)oxolan-2-yl]-1H-purin-6-one] | 10 to 50 µM | 10 to 50 µM | 10 to 50 µM | > 1 µM
2 | CC[C@]1(CO)O[C@@H](n2cnc3c(N)nc(F)nc32)C[C@@H]1O [Compound 64, (2R,3S,5R)-5-(6-amino-2-fluoro-9H-purin-9-yl)-2-ethyl-2-(hydroxymethyl)tetrahydrofuran-3-ol] | < 1 µM | < 1 µM | < 1 µM | > 1 µM
3 | Nc1nc(=O)n([C@H]2C[C@H](O)[C@](CO)(C(F)F)O2)cc1F [Compound 65, 4-amino-1-[(2R,4S,5R)-5-(difluoromethyl)-4-hydroxy-5-(hydroxymethyl)oxolan-2-yl]-5-fluoropyrimidin-2-one] | > 100 µM | > 100 µM | > 100 µM | 0.25 to 1 µM
4 | Nc1nc(=O)n([C@H]2C[C@H](O)[C@](CO)(C(F)(F)F)O2)cc1F [Compound 66, 4-amino-5-fluoro-1-((2R,4S,5R)-4-hydroxy-5-(hydroxymethyl)-5-(trifluoromethyl)tetrahydrofuran-2-yl)pyrimidin-2(1H)-one] | > 100 µM | > 100 µM | > 100 µM | > 1 µM
5 | CC[C@]1(CO)O[C@@H](n2cnc3c(=O)[nH]c(N)nc32)[C@@H](F)[C@@H]1O [Compound 68, 2-amino-9-((2R,3S,4R,5R)-5-ethyl-3-fluoro-4-hydroxy-5-(hydroxymethyl)tetrahydrofuran-2-yl)-1,9-dihydro-6H-purin-6-one] | 10 to 50 µM | 10 to 50 µM | 10 to 50 µM | > 1 µM
6 | C=C[C@]1(CO)O[C@@H](n2cnc3c(=O)[nH]c(N)nc32)C[C@@H]1O [Compound 69] | 1 to 10 µM | 1 to 10 µM | 1 to 10 µM | > 1 µM
7 | Nc1nc2c(ncn2[C@@H]2O[C@@](CO)(CCl)[C@@H](O)[C@@H]2F)c(=O)[nH]1 [Compound 70, 2-amino-9-((2R,3S,4R,5R)-5-(chloromethyl)-3-fluoro-4-hydroxy-5-(hydroxymethyl)-tetrahydrofuran-2-yl)-1,9-dihydro-6H-purin-6-one] | 10 to 50 µM | 10 to 50 µM | 10 to 50 µM | > 1 µM
8 | C=C[C@]1(CO)O[C@@H](n2cc(F)c(N)nc2=O)C[C@@H]1O [Compound 74, 4-amino-5-fluoro-1-((2R,4S,5R)-4-hydroxy-5-(hydroxymethyl)-5-vinyltetrahydrofuran-2-yl)pyrimidin-2(1H)-one] | > 100 µM | > 100 µM | > 100 µM | > 1 µM
9 | C=C[C@]1(CO)O[C@@H](n2cc(F)c(N)nc2=O)[C@@H](O)[C@@H]1O [Compound 75, 4-amino-1-((2R,3S,4S,5R)-3,4-dihydroxy-5-(hydroxymethyl)-5-vinyltetrahydrofuran-2-yl)-5-fluoropyrimidin-2(1H)-one] | > 100 µM | > 100 µM | > 100 µM | > 1 µM
10 | C=C[C@]1(CO)O[C@@H](n2cc(F)c(N)nc2=O)[C@@H](F)[C@@H]1O [Compound 76, 4-amino-1-[(2R,3S,4R,5R)-5-ethenyl-3-fluoro-4-hydroxy-5-(hydroxymethyl)oxolan-2-yl]-5-fluoropyrimidin-2-one] | > 100 µM | 1 to 10 µM | 1 to 10 µM | > 1 µM
11 | CC[C@]1(CO)O[C@@H](n2cc(F)c(N)nc2=O)[C@@H](O)[C@@H]1O [Compound 78, 4-amino-1-((2R,3S,4S,5R)-5-ethyl-3,4-dihydroxy-5-(hydroxymethyl)tetrahydrofuran-2-yl)-5-fluoropyrimidin-2(1H)-one] | > 100 µM | > 100 µM | > 100 µM | > 1 µM
12 | C=C[C@]1(CO)O[C@@H](n2cnc3c(N)nc(F)nc32)[C@@H](F)[C@@H]1O [Compound 80, (2R,3R,4S,5R)-5-(6-amino-2-fluoropurin-9-yl)-2-ethenyl-4-fluoro-2-(hydroxymethyl)oxolan-3-ol] | > 100 µM | > 100 µM | 50 to 100 µM | > 1 µM
13 | CC[C@]1(CO)O[C@@H](n2cnc3c(N)nc(F)nc32)[C@@H](F)[C@@H]1O [Compound 81, (2R,3R,4S,5R)-5-(6-amino-2-fluoropurin-9-yl)-2-ethyl-4-fluoro-2-(hydroxymethyl)oxolan-3-ol] | > 100 µM | > 100 µM | > 100 µM | > 1 µM
14 | CC[C@]1(CO)O[C@@H](n2cc(F)c(N)nc2=O)C[C@@H]1O [Compound 82, 4-amino-1-((2R,4S,5R)-5-ethyl-4-hydroxy-5-(hydroxymethyl)-tetrahydrofuran-2-yl)-5-fluoropyrimidin-2(1H)-one] | > 100 µM | > 100 µM | > 100 µM | > 1 µM
15 | [N-]=[N+]=N[C@]1(CO)O[C@@H](c2ccc3c(N)ncnn23)C[C@@H]1O [Compound 92, (2R,3S,5R)-5-(4-aminopyrrolo[2,1-f][1,2,4]triazin-7-yl)-2-azido-2-(hydroxymethyl) tetrahydrofuran-3-ol] | 1 to 10 µM | 1 to 10 µM | < 1 µM | > 1 µM
16 | C[C@]1(CO)O[C@@H](n2ccc(N)nc2=O)C[C@@H]1O [Compound 106, 4-amino-1-((2R,4S,5R)-4-hydroxy-5-(hydroxymethyl)-5-methyltetrahydrofuran-2-yl)pyrimidin-2(1H)-one] | < 1 µM | < 1 µM | < 1 µM | 0.25 to 1 µM
17 | C#C[C@]1(CO)O[C@@H](n2cc(F)c(N)nc2=O)C[C@@H]1O [Compound 107, 4-amino-1-((2R,4S,5R)-5-ethynyl-4-hydroxy-5-(hydroxymethyl)tetrahydro-furan-2-yl)-5-fluoropyrimidin-2(1H)-one] | > 100 µM | > 100 µM | > 100 µM | > 1 µM
18 | [N-]=[N+]=N[C@]1(CO)O[C@@H](n2cnc3c(=O)[nH]c(N)nc32)C[C@@H]1O [Compound 108, 2-amino-9-((2R,4S,5R)-5-azido-4-hydroxy-5-(hydroxymethyl)tetrahydro-furan-2-yl)-1,9-dihydro-6H-purin-6-one] | 1 to 10 µM | 10 to 50 µM | 1 to 10 µM | 0.25 to 1 µM
19 | C=C[C@]1(CO)O[C@@H](n2cnc3c(N)nc(F)nc32)C[C@@H]1O [Compound 109, (2R,3S,5R)-5-(6-amino-2-fluoro-9H-purin-9-yl)-2-(hydroxymethyl)-2-vinyltetrahydrofuran-3-ol] | 1 to 10 µM | 1 to 10 µM | 1 to 10 µM | > 1 µM
20 | Nc1ccn([C@H]2C[C@H](O)[C@](CO)(C(F)F)O2)c(=O)n1 [Compound 110, 4-amino-1-((2R,4S,5R)-5-(difluoromethyl)-4-hydroxy-5-(hydroxymethyl)-tetrahydrofuran-2-yl)pyrimidin-2(1H)-one] | > 100 µM | > 100 µM | > 100 µM | > 1 µM
21 | Nc1ccn([C@@H]2O[C@H](CO)[C@@H](O)C2(F)F)c(=O)n1 [Compound 111, 4-amino-1-((2R,4R,5R)-3,3-difluoro-4-hydroxy-5-(hydroxymethyl)tetrahydro-furan-2-yl)pyrimidin-2(1H)-one] | < 1 µM | < 1 µM | < 1 µM | 0.05 to 0.1 µM
22 | C#C[C@]1(CO)O[C@@H](n2cc(F)c(N)nc2=O)[C@@H](F)[C@@H]1O [Compound 112, 4-amino-1-((2R,3S,4R,5R)-5-ethynyl-3-fluoro-4-hydroxy-5-(hydroxymethyl)tetrahydrofuran-2-yl)-5-fluoropyrimidin-2(1H)-one] | > 100 µM | < 1 µM | < 1 µM | > 1 µM
